Remaining activity and inhibition data for 17 compounds are collected here from EP4692062A1, “NOVEL AMIDE-BASED COMPOUND AND COMPOSITION COMPRISING SAME” (Amorepacific Corporation, priority 2023, dated 2024).

Assay type in all cases: biochemical
Assay [1] has as its target T1, MMP-2 (Homo sapiens, UniProt P08253).
T1 construct: purchased Abchem (so in the source)
T1 sequence (P08253 110-660): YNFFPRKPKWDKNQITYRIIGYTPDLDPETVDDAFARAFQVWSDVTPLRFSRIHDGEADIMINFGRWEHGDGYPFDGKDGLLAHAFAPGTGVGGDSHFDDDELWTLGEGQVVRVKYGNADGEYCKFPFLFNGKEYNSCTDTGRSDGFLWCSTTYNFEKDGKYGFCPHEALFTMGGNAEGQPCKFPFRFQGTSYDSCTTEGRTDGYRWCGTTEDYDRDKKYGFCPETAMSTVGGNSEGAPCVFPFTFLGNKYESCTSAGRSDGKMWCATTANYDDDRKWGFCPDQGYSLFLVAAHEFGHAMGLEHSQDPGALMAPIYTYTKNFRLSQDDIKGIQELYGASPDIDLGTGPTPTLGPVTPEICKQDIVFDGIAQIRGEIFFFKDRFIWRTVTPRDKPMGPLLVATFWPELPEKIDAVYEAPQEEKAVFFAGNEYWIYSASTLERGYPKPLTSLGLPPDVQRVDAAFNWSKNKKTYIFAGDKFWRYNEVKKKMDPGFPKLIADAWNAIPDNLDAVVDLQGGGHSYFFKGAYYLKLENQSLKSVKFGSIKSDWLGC
The assay can be described thus: MMP2 Inhibitor Screening Assay Kit (ab139446), colorimetric thiopeptide substrate, OD412. Particulars: remaining enzyme activity, untreated group = 100%; compound at 50 nM; n=2. The procedure: Enzyme activity (%) at the same concentration was compared with treatment with 0.5 µM MMP-1 activity and 50 nM MMP-2 and MMP-9 activity (n=2). Here, enzyme activity (%) refers to the enzyme activity (%) of the experimental group when the untreated group is considered to have 100% enzyme activity. To evaluate the effect of the new compound on the enzyme activity, the color change was measured by following the provided protocol using a kit sold by Abchem as follows. […] Therefore, the change in OD412 level (OD value) per minute was measured and the value was obtained according to the enzyme activity calculation formula below. […] (ε=13,600 M^-1cm^-1 above pH 6.0) New compound enzyme activity(%) = (Vnew compound/Vuntreated group)*100 [formula] V = change in OD value per minute

Assay [2] deals with T1, MMP-2. Described as above. The note with it: T-05~20 at 10 uM; for inhibition at 10 µM: read-out: MMP-2 (%) (inhibitory efficacy, high concentration); for remaining activity at 10 µM: remaining enzyme activity, read-out: MMP-2 (%) (enzyme activity, high concentration).
A further assay deals with T2, MMP-1 (Homo sapiens, UniProt P03956).
T2 construct: purchased Abchem (so in the source)
T2 sequence (P03956 100-269 limits assumed): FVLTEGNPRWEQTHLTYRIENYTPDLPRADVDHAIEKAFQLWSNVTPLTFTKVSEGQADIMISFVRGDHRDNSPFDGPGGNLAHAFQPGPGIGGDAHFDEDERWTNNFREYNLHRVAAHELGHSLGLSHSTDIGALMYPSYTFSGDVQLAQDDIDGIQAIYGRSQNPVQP
As to the kind of experiment: MMP1 Inhibitor Screening Assay Kit (ab139443), colorimetric thiopeptide substrate, OD412. The note with it: for inhibition at 10 µM / remaining activity at 10 µM: T-05~20 at 10 uM; for inhibition at 10 µM: read-out: MMP-1 (%) (inhibitory efficacy, high concentration); for remaining activity at 0.5 µM / remaining activity at 10 µM: remaining enzyme activity; for remaining activity at 0.5 µM: untreated group = 100%, compound at 0.5 uM, n=2; for remaining activity at 10 µM: read-out: MMP-1 (%) (enzyme activity, high concentration). The procedure: Enzyme activity (%) at the same concentration was compared with treatment with 0.5 µM MMP-1 activity and 50 nM MMP-2 and MMP-9 activity (n=2). Here, enzyme activity (%) refers to the enzyme activity (%) of the experimental group when the untreated group is considered to have 100% enzyme activity.
To evaluate the effect of the new compound on the enzyme activity, the color change was measured by following the provided protocol using a kit sold by Abchem as follows.
As MMP activity increases, the substrate is decomposed and the OD412 level increases. Therefore, the change in OD412 level (OD value) per minute was measured and the value was obtained according to the enzyme activity calculation formula below. […] (ε=13,600 M^-1cm^-1 above pH 6.0)
New compound enzyme activity(%) = (Vnew compound/Vuntreated group)*100 [formula] V = change in OD value per minute

For another assay, the target named is T3, MMP-9 (Homo sapiens, UniProt P14780).
T3 construct: purchased Abchem (so in the source)
The assay can be described thus: MMP9 Inhibitor Screening Assay Kit (ab139448), colorimetric thiopeptide substrate, OD412. The note with it: compound at 50 nM; for remaining activity at 0.05 µM: remaining enzyme activity, untreated group = 100%, n=2; for inhibition at 0.05 µM: read-out: MMP-9 (%) at 50 nM (inhibitory activity). The procedure:
Enzyme activity (%) at the same concentration was compared with treatment with 0.5 µM MMP-1 activity and 50 nM MMP-2 and MMP-9 activity (n=2). Here, enzyme activity (%) refers to the enzyme activity (%) of the experimental group when the untreated group is considered to have 100% enzyme activity. To evaluate the effect of the new compound on the enzyme activity, the color change was measured by following the provided protocol using a kit sold by Abchem as follows. Enzyme activity was obtained by comparing absorbance per minute with the untreated group. • MMP1 Inhibitor Screening Assay Kit (ab139443) • MMP2 Inhibitor Screening Assay Kit (ab139446) • MMP9 Inhibitor Screening Assay Kit (ab139448) As MMP activity increases, the substrate is decomposed and the OD412 level increases. Therefore, the change in OD412 level (OD value) per minute was measured and the value was obtained according to the enzyme activity calculation formula below. Here, OD412 means optical density or absorbance at 412 nm. • Thiopeptide (Ac-PLG-[2-mercapto-4-methyl-pentanoyl]-LG-OC2H5) as a chromogenic substrate. • The MMP cleavage site peptide bond was replaced by the thioester bond of the thiopeptide. • Hydrolysis of this bond by MMP generates a sulfhydryl group, which reacts with DTNB [5,5'-dithiobis(2-nitrobenzoic acid), Ellman's reagent] to form 2-nitro-5-thiobenzoic acid. , which can be measured by its absorbance at 412 nm. (ε=13,600 M^-1cm^-1 above pH 6.0) New compound enzyme activity(%) = (Vnew compound/Vuntreated group)*100 [formula] V = change in OD value per minute

T3 sequence (P14780 94-707): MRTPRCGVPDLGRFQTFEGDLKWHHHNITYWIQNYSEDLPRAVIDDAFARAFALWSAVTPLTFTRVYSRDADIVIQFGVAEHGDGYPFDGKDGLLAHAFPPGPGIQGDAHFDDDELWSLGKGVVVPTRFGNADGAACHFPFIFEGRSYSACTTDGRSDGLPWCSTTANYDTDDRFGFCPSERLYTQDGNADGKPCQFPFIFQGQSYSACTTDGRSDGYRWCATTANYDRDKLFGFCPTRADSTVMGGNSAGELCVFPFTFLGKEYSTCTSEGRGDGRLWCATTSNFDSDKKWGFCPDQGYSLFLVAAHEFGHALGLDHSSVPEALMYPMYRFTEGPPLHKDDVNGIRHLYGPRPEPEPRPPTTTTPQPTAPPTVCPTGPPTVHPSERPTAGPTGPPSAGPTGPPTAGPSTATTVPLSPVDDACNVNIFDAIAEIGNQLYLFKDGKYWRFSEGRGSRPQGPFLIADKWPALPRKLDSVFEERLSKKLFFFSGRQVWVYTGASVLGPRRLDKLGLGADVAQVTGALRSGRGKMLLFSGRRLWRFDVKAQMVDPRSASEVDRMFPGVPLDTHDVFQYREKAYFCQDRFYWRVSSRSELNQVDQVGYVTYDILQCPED

As for `O=C(NO)C(Cc1ccccc1)NS(=O)(=O)c1ccc2ccccc2c1` (stereo not drawn) [T-11, N-hydroxy-2-(naphthalene-2-sulfonamido)-3-phenylpropanamide], at MMP-2 [1], the remaining activity at 0.05 µM stood at 82.7%. At MMP-2 [2], the inhibition at 10 µM was 93.8% and the remaining activity at 10 µM was 6.2%. Further, on MMP-1, the inhibition at 10 µM is 42.9%, the remaining activity at 0.5 µM was determined as 100% and the remaining activity at 10 µM came out at 57.1%. At MMP-9, the remaining activity at 0.05 µM is 100%.

In the case of `CC(C)CC(NS(=O)(=O)c1ccccc1)C(=O)NO` (stereo not drawn) [T-36, N-hydroxy-4-methyl-2-(phenylsulfonamido)pentanamide], the remaining activity at 0.05 µM at MMP-2 [1] was 100%; on MMP-9, 97.4%. At MMP-1, this compound registered a remaining activity at 0.5 µM of 98.2%.

For `CC(C)(C)c1ccc(S(=O)(=O)NC(Cc2ccccc2)C(=O)NO)cc1` (stereo not drawn) [T-08, 2-((4-(tert-butyl)phenyl)sulfonamido)-N-hydroxy-3-phenylpropanamide], at MMP-2 [1], the remaining activity at 0.05 µM worked out at 100%. Moreover, on MMP-2 [2], the inhibition at 10 µM came to 0% and the remaining activity at 10 µM was determined as 100%. Also, at MMP-1, the inhibition at 10 µM came out at 12.8%, the remaining activity at 0.5 µM was 100% and the remaining activity at 10 µM was 87.2%. The same compound returned a remaining activity at 0.05 µM on MMP-9 of 100%.

Regarding `O=C(NO)C1CCCCN1S(=O)(=O)c1ccccc1` (stereo not drawn) [T-01, N-hydroxy-1-(phenylsulfonyl)piperidine-2-carboxamide], the results for the remaining activity at 0.05 µM at MMP-2 [1] and at MMP-9 were 81.6% and 79.1%, respectively. Besides, the remaining activity at 0.5 µM at MMP-1 was 34.2%.

With `Cc1cc(C)c(S(=O)(=O)NC(Cc2ccccc2)C(=O)NO)c(C)c1` (stereo not drawn) [T-10, N-hydroxy-3-phenyl-2-((2,4,6-trimethylphenyl)sulfonamido)propanamide], the remaining activity at 0.05 µM at MMP-2 [1] was 95.6%; on MMP-9, 100%. For the same compound, the inhibition at 10 µM at MMP-2 [2] came out at 15.5%; on MMP-1, 0%. The remaining activity at 10 µM at MMP-2 [2] was found to be 84.5%; on MMP-1 it was 100%. Also, the remaining activity at 0.5 µM on MMP-1 was determined as 100%.

On MMP-2 [1], `CC(C)C(NS(=O)(=O)c1ccc(C(C)(C)C)cc1)C(=O)NO` (stereo not drawn) [T-18, 2-((4-(tert-butyl)phenyl)sulfonamido)-N-hydroxy-3-methylbutanamide] yielded a remaining activity at 0.05 µM of 99.9%. Moreover, at MMP-2 [2], the inhibition at 10 µM was 0% and the remaining activity at 10 µM stood at 100%. At MMP-1, the inhibition at 10 µM was 0%, the remaining activity at 0.5 µM is 100% and the remaining activity at 10 µM was determined as 100%. This compound also had a remaining activity at 0.05 µM on MMP-9 of 100%.

`Cc1cc(C)c(S(=O)(=O)N2CCCCC2C(=O)NO)c(C)c1` (stereo not drawn) [T-05, N-hydroxy-1-(mesitylsulfonyl)piperidine-2-carboxamide] came in with a remaining activity at 0.05 µM at MMP-2 [1] of 100%. At MMP-2 [2], the inhibition at 10 µM amounted to 15.8% and the remaining activity at 10 µM was determined as 84.2%. Further, on MMP-1, the inhibition at 10 µM was found to be 8.3%, the remaining activity at 0.5 µM came to 100% and the remaining activity at 10 µM was found to be 91.7%. Also, the remaining activity at 0.05 µM on MMP-9 was determined as 100%.

As to `CCCc1ccc(S(=O)(=O)N2CCCCC2C(=O)NO)cc1` (stereo not drawn) [T-24, N-hydroxy-1-((4-propylphenyl)sulfonyl)piperidine-2-carboxamide], the remaining activity at 0.05 µM came out at 57.7% on MMP-2 [1] and 99% on MMP-9. At MMP-1, the remaining activity at 0.5 µM is 78.4%.

In the case of `O=C(NO)C1CCCCN1S(=O)(=O)c1ccc(-c2ccccc2)cc1` (stereo not drawn) [T-02, 1-([1,1'-biphenyl]-4-ylsulfonyl)-N-hydroxypiperidine-2-carboxamide], the remaining activity at 0.05 µM on MMP-9 turned out to be 41.9%.

Regarding `CC(=NO)c1ccc(S(=O)(=O)N2CCCCC2C(=O)NO)cc1` (stereo not drawn) [T-35, N-hydroxy-1-((4-(1-(hydroxyimino)ethyl)phenyl)sulfonyl)piperidine-2-carboxamide], the remaining activity at 0.05 µM on MMP-9 was 19.9%.

At MMP-2 [1], `Cc1cc(C)c(S(=O)(=O)NC(C(=O)NO)C(C)C)c(C)c1` (stereo not drawn) [T-20, N-hydroxy-3-methyl-2-((2,4,6-trimethylphenyl)sulfonamido)butanamide] showed a remaining activity at 0.05 µM of 97.8%. At MMP-2 [2], the inhibition at 10 µM was found to be 59.9% and the remaining activity at 10 µM turned out to be 40.1%. Moreover, on MMP-1, the inhibition at 10 µM worked out at 0%, the remaining activity at 0.5 µM was 100% and the remaining activity at 10 µM worked out at 100%. For the same compound, at MMP-9, the inhibition at 0.05 µM was determined as 0% and the remaining activity at 0.05 µM amounted to 100%.

Turning to `CC(=O)Nc1ccc(S(=O)(=O)N2CCCC2C(=O)NO)cc1` (stereo not drawn) [T-40, 1-((4-acetamidophenyl)sulfonyl)-N-hydroxypyrrolidine-2-carboxamide], the remaining activity at 0.05 µM on MMP-2 [1] and at MMP-9 was 100% in each case. Besides, the remaining activity at 0.5 µM at MMP-1 came out at 100%.

In the case of `CCCCOc1ccc(S(=O)(=O)N2CCCCC2C(=O)NO)cc1` (stereo not drawn) [T-04, 1-((4-butoxyphenyl)sulfonyl)-N-hydroxypiperidine-2-carboxamide], the remaining activity at 0.05 µM at MMP-9 turned out to be 0%.

Turning to `CC(C)CC(NS(=O)(=O)c1ccc(-c2ccccc2)cc1)C(=O)NO` (stereo not drawn) [T-12, 2-([1,1'-biphenyl]-4-sulfonamido)-N-hydroxy-4-methylpentanamide], the remaining activity at 0.05 µM on MMP-9 stood at 70.6%.

In the case of `CCCCOc1ccc(S(=O)(=O)NC(CC(C)C)C(=O)NO)cc1` (stereo not drawn) [T-14, 2-((4-butoxyphenyl)sulfonamido)-N-hydroxy-4-methylpentanamide], the remaining activity at 0.05 µM at MMP-2 [1] was 0%; at MMP-9, 73.5%. For the same compound, the remaining activity at 0.5 µM on MMP-1 is 100%. For the same compound, on MMP-9, the inhibition at 0.05 µM is 26.5%.

`O=C(NO)C1CCCCN1S(=O)(=O)c1ccc(F)cc1` (stereo not drawn) [T-21, 1-((4-fluorophenyl)sulfonyl)-N-hydroxypiperidine-2-carboxamide]: the remaining activity at 0.05 µM at MMP-2 [1] was 81.1%; on MMP-9 it was 100%. Also, the remaining activity at 0.5 µM at MMP-1 was found to be 9.2%.

As to `CCCCOc1ccc(S(=O)(=O)N2CCCC2C(=O)NO)cc1` (stereo not drawn) [T-29, 1-((4-butoxyphenyl)sulfonyl)-N-hydroxypyrrolidine-2-carboxamide], the results for the remaining activity at 0.05 µM on MMP-2 [1] and on MMP-9 were 18.9% and 50.2%, respectively. The same compound registered a remaining activity at 0.5 µM on MMP-1 of 100%.
